The values below are quoted from earlier work in patent publication US20080233219A1, “Composition for diet comprising plant essential oil as active ingredient, sheet type composition for diet comprising thereof, percutaneous pharmaceutical agent for diet comprising thereof, and method for producing thereof” (NATURE TECHNOLOGY INC., priority 2005, published 2008).

For data set [1] the following is noted: in three month.
For data set [2] the following is noted: in vivo.

Turning to `OC1(c2ccc(Cl)cc2)c2ccccc2C2=NCCN21` (centres unmarked) [Mazindol], in data set [1], the “gradual weight loss, average” value is on record as “about 4.5 kg”. Also, in data set [2], the side effects result was “not serious ones except cotton mouth, astriction, indigestible feeling”.
